Source: article PMC10331583, “Control of fibrosis with enhanced safety via asymmetric inhibition of prolyl‐tRNA synthetase 1” (EMBO Molecular Medicine, 2023)
“And” between values parts separate entries of the source, which are not always exact repeats. Equal entries are not always repeated.

How the values were obtained:
[1] = target: T1, PARS1 F1097A/E1123A/R1152L (FA/EA/RL) mutant (Homo sapiens, UniProt P07814, E1123A/F1097A/R1152L); assay: Microscale thermophoresis (MST), PARS1 mutant; format: binding
T1 construct: His‐PARS1 (1001–1,512 aa); made in house; host or cells: Escherichia coli
T1 sequence (P07814 1001-1512 F1097A/E1123A/R1152L): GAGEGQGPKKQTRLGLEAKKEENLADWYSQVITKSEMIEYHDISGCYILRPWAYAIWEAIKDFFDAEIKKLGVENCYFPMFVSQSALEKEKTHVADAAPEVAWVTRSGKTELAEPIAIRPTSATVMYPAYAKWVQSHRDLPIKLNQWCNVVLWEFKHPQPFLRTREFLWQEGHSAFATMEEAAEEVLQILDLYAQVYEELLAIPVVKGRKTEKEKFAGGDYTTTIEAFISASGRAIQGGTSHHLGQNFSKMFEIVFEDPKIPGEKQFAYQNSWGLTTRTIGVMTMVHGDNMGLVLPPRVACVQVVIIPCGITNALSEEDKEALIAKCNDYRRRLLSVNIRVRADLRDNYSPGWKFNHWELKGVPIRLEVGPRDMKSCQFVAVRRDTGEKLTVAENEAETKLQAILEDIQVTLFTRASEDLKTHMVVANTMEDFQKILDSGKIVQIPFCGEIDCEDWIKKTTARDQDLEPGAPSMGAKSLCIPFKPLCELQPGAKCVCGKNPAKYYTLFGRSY

[2] = tested on: WI‐26 VA4 cells stably expressing PARS1 FA/EA/RL mutant; assay: Collagen ELISA in cells stably expressing PARS1 mutant; settings: for Collagen level, average: average of 4 experiments; for Collagen level, single replicates: replicates of Experiments #1-#4
[3] = Cytotoxicity assay in cells stably expressing PARS1 mutant; settings: human; for activity at 72 h, 3 µM: 3000 nM; for activity at 72 h, 30 µM: 30000 nM; for activity at 72 h, 100 µM: 100000 nM
[4] = WI-26 VA4 Flag-PARS1 FA/EA/RL, 30 nM
[5] = WI-26 VA4 Flag-PARS1 FA/EA/RL, 100 nM
[6] = WI-26 VA4 Flag-PARS1 FA/EA/RL, 300 nM
[7] = WI-26 VA4 Flag-PARS1 FA/EA/RL, 1000 nM
[8] = WI-26 VA4 Flag-PARS1 FA/EA/RL, 3000 nM
[9] = WI-26 VA4 Flag-PARS1 FA/EA/RL, 10000 nM
[10] = WI-26 VA4 Flag-PARS1 FA/EA/RL, 30000 nM
[11] = WI-26 VA4 Flag-PARS1 FA/EA/RL, 100000 nM
[12] = WI-26 VA4 Flag-PARS1 FA/EA/RL, 300000 nM
[13] = Cytotoxicity, % of control (single replicates, Experiment #1-#4), WI-26 VA4 Flag-PARS1 FA/EA/RL
[14] = Cytotoxicity, % of control, average, WI-26 VA4 Flag-PARS1 FA/EA/RL

**Q.** Which results are given for `O[C@H]1CCCN[C@@H]1CCCn1cnc2c(Cl)c(Cl)ccc21` [DWN12088]?
**A.** Kd ([1]; Kd (Fit Results), His-PARS1 FA/EA/RL, doses of the sheet in nM): 114000 nM; Kd ([1]; Kd, MT (FA/EA/RL), 5 mM ATP, mean ± SD, unit inferred): 114000 ± 57400 nM; IC50 ([2]; Homo sapiens, WI26VA4, read-out: IC50, collagen level): 1.49 µM; CC50/collagen IC50 ([2]; PARS1 FA/EA/RL cells): 7.88; Relative (CC50)/(collagen IC50) ([2]; PARS1 FA/EA/RL cells, relative to EV): 0.63; Collagen level, average [2, 4]: 96.80 % of control; Collagen level, single replicates [2, 4]: 101.27 % of control and 106.03 % of control and 102.09 % of control and 97.52 % of control and 107.38 % of control and 87.30 % of control and 97.03 % of control and 100.22 % of control and 82.11 % of control and 93.95 % of control and 95.06 % of control and 91.64 % of control; Collagen level, average [2, 5]: 91.15 % of control; Collagen level, single replicates [2, 5]: 92.43 % of control and 98.06 % of control and 99.31 % of control and 91.83 % of control and 92.72 % of control and 85.46 % of control and 90.73 % of control (2×) and 82.66 % of control and 81.56 % of control and 88.43 % of control and 99.91 % of control; Collagen level, average [2, 6]: 79.61 % of control; Collagen level, single replicates [2, 6]: 87.41 % of control and 88.18 % of control and 78.49 % of control and 71.44 % of control and 76.98 % of control and 80.63 % of control and 81.90 % of control and 76.13 % of control and 73.84 % of control and 86.07 % of control and 78.20 % of control and 75.99 % of control; Collagen level, average [2, 7]: 62.53 % of control; Collagen level, single replicates [2, 7]: 72.91 % of control and 64.62 % of control and 69.50 % of control and 60.49 % of control and 52.43 % of control and 63.48 % of control and 72.89 % of control and 52.77 % of control and 57.64 % of control and 59.18 % of control and 66.74 % of control and 57.76 % of control; Collagen level, average [2, 8]: 26.56 % of control; Collagen level, single replicates [2, 8]: 25.97 % of control and 27.35 % of control and 25.49 % of control and 26.93 % of control and 30.39 % of control and 26.86 % of control and 25.02 % of control and 29.58 % of control and 24.14 % of control and 24.80 % of control and 25.63 % of control and 26.57 % of control; Collagen level, average [2, 9]: 4.37 % of control; Collagen level, single replicates [2, 9]: 4.38 % of control and 3.58 % of control and 3.17 % of control and 5.34 % of control and 4.53 % of control and 5.67 % of control and 3.18 % of control and 3.93 % of control and 4.88 % of control and 4.67 % of control and 4.47 % of control and 4.59 % of control; Collagen level, average [2, 10]: 2.20 % of control; Collagen level, single replicates [2, 10]: 2.07 % of control and 2.38 % of control and 2.98 % of control and 3.14 % of control and 2.40 % of control and 2.09 % of control and 1.49 % of control and 1.46 % of control and 1.88 % of control (2×) and 2.96 % of control and 1.71 % of control; Collagen level, average [2, 11]: 1.94 % of control; Collagen level, single replicates [2, 11]: 2.11 % of control and 2.24 % of control and 1.83 % of control and 2.90 % of control and 1.40 % of control and 1.89 % of control and 1.44 % of control and 1.33 % of control and 1.75 % of control and 1.90 % of control and 2.31 % of control and 2.15 % of control; Collagen level, average [2, 12]: 1.36 % of control; Collagen level, single replicates [2, 12]: 1.67 % of control and 0.92 % of control and 0.84 % of control and 1.94 % of control; HillSlope, collagen level ([2]; WI-26 VA4 Flag-PARS1 FA/EA/RL, four-parameter fit): -1.331; LogIC50, collagen level ([2]; WI-26 VA4 Flag-PARS1 FA/EA/RL, log of concentration in nM, four-parameter fit): 3.174; CC50 at 72 h [3]: 11.8 µM; IC50 at 72 h [3]: 11.8 µM; activity at 72 h, 3 µM [3, 13]: 85.2%; activity at 72 h, 30 µM [3, 13]: 25.3%; activity at 72 h, 100 µM [3, 13]: 22.8%; activity at 72 h, 0.01 µM ([3]; Cytotoxicity, % of control, average, WI-26 VA4 Flag-PARS1 FA/EA/RL, 10 nM): 110%; activity at 72 h, 0.03 µM ([3]; Cytotoxicity, % of control, average, WI-26 VA4 Flag-PARS1 FA/EA/RL, 30 nM): 107%; activity at 72 h, 0.1 µM ([3]; Cytotoxicity, % of control, average, WI-26 VA4 Flag-PARS1 FA/EA/RL, 100 nM): 110%; activity at 72 h, 0.3 µM ([3]; Cytotoxicity, % of control, average, WI-26 VA4 Flag-PARS1 FA/EA/RL, 300 nM): 107%; activity at 72 h, 1 µM ([3]; Cytotoxicity, % of control, average, WI-26 VA4 Flag-PARS1 FA/EA/RL, 1000 nM): 111%; activity at 72 h, 3 µM [3, 14]: 81.7%; activity at 72 h, 10 µM ([3]; Cytotoxicity, % of control, average, WI-26 VA4 Flag-PARS1 FA/EA/RL, 10000 nM): 68.8%; activity at 72 h, 30 µM [3, 14]: 19.5%; activity at 72 h, 100 µM [3, 14]: 20.1%; activity at 72 h, 300 µM ([3]; Cytotoxicity, % of control, average, WI-26 VA4 Flag-PARS1 FA/EA/RL, 300000 nM): 1.1%; activity at 72 h, 1000 µM ([3]; Cytotoxicity, % of control, average, WI-26 VA4 Flag-PARS1 FA/EA/RL, 1000000 nM): 0%
